Results reported in US20250057913A1, “USE OF SOMATOSTATIN AGONIST IN THE TREATMENT OF SSTR3 EXPRESSING TUMORS” (ITALFARMACO SPA, priority 2021, published 2025).

How the values were obtained:
[1] = molecular target: T1, SSTR3 (Homo sapiens, UniProt P32745); assay: SSTR binding affinity (Table 1)
Text: (§1) IC50 values are from one representative experiment. Confidence interval from 3 independent experiments (Table 1).

[2] = system: opioid receptors; assay: single dose binding assays on opioid receptors; details: single dose 10^−5 M
[3] = system: IGF1 levels; assay: IGF1 levels in rats; format: in vivo, rat
[4] = system: IGF1 levels; assay: IGF1 levels in dogs; format: in vivo, dog
[5] = system: NFPAs in MENX (homozygous mutant) rats; assay: Efficacy against endogenous NFPAs in MENX rat model; format: in vivo; details: for number of Ki67-positive cells per 100.000 μm^2: end of treatment
Experimental: MRI was performed every 14 days and the tumor volume was normalized against the volume at day 0. Male and female rat tumors are shown separately. Data presented are the mean±SEM. #, not significant; *, p-value <0.05; **, p-value <0.001.
(A, B) Number of Ki67-positive cells per 100.000 μm2 in tumors of rats belonging to the 2 groups (ITF2984-treated and control) and both sexes. Shown is the mean±SEM. *, p-value <0.05; **, p-value <0.001. […]
At the end of the treatment, pituitary tissues were collected for ex vivo analyses. […] The difference in the number of Ki67-positive cells between placebo-and ITF2984-treated female rats is significant (p=0.031). […]

[6] = system: NT-3 cell line spheroids; assay: Cytotoxic activity on NT-3 cell line spheroids; format: cell-based, human
Experimental: NT-3 well-differentiated pancreatic neuroendocrine (PanNET) cell line (32) is an in-vitro model for pancreatic tumours.
Said cells were cultured in RPMI 1640 Medium GlutaMAX™ with 10% FBS, 1% Penicillin/Streptomycin, 20ng/ml EGF (AF-100-15, Peprotech), 10 ng/ml FGF (100-18B, Peprotech).
3D spheroids were generated by seeding 2000 cells/well in a 96-well ULA plate (Corning). Four replicates for each condition were seeded.
The spheroid formation required 4 days before starting the treatment.
The treatment was repeated every 3 days by replacing 50% of the medium (to avoid spheroid removal) with new medium containing 2× desired drug concentration.
Spheroid morphology was monitored every day during the treatment and pictures were taken on day 0, 4, 7, 11, 14, 18. Day 0 corresponds to the first day of treatment. Pictures were taken from the same well every time point.

[7] = molecular target: T2, SSTR2 (Homo sapiens, UniProt P30874); assay: SSTR2 internalization in transfected HEK293 cells; format: cell-based; set-up: expressed in transfected cells
T2 sequence (P30874 whole entry): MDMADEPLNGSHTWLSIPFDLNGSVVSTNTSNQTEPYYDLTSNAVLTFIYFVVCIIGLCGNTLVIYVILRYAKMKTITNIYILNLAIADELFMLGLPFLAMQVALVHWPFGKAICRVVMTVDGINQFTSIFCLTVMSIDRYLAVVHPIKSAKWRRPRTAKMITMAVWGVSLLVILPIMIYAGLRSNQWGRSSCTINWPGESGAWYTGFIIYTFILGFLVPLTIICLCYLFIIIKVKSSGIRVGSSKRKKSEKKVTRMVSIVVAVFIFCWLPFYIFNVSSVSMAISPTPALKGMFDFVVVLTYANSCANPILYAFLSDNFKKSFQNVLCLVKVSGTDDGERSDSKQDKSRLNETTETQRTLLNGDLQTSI
Text: (§2) HEK293 cells transfected with human SSTRs, and U20S cells transfected with human GFP-tagged receptors (SSTR2-tGFP, SSTR3-tGFP, SSTR5-tGFP).

[8] = molecular target: T2, SSTR2; assay: SSTR2 phosphorylation in HEK293 transfected cells (phosphosite-specific antibodies); format: cell-based; set-up: expressed in transfected cells; details: 10 or 1 μM, 10 min at 37° C.
Experimental: (A) Schematic representation of the human SSTR2 receptor indicating all potential phosphate acceptor sites within the carboxyl-terminal tail. Epitopes of the phosphosite-specific antibodies are marked (-P). […] The levels of phosphorylated SSTR2 receptor were then determined using the phosphosite-specific anti-pS341/pS343, pT353/T354, pT356/T359 antibodies. […] Blots shown are representative of three independent experiments. The positions of molecular mass markers are indicated on the left (in kDa).

[9] = molecular target: T3, SSTR5 (Homo sapiens, UniProt P35346); assay: SSTR5 phosphorylation in HEK293 transfected cells (anti-pT333); format: cell-based; set-up: expressed in transfected cells; details: 10 min at 37° C.
T3 sequence (P35346 whole entry): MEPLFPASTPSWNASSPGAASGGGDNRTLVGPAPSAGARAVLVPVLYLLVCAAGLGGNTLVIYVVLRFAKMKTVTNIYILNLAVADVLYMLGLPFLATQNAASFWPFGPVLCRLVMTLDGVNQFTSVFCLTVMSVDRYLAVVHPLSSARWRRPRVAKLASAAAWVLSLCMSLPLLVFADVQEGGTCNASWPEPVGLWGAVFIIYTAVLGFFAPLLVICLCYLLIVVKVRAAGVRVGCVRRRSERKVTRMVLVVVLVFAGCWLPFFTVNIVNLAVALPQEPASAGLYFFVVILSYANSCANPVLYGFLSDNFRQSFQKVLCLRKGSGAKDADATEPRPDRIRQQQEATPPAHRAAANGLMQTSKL
Text: FIG. 9—Agonist-selective SSTR5 phosphorylation in HEK293 transfected cells. (A) Schematic representation of the human SSTR5 receptor indicating all potential phosphate acceptor site within the carboxyl-terminal tail. Epitope of the phosphosite-specific antibodies are marked (-P) . . . […] (C) Blots were subsequently stripped and reprobed with anti-HA antibody to confirm equal loading of the gels. Blots shown are representative of three independent experiments. The positions of molecular mass markers are indicated on the left (in kDa).
Finally, the SSTR5 pT333 phosphosite was only partially affected by all tested compounds, with Pasireotide showing the most pronounced effect (FIG. 9B, C).

[10] = molecular target: SSTR2-tGFP (Homo sapiens, UniProt P30874); assay: Internalization of SSTR2 in U2OS transfected cells; format: cell-based; set-up: expressed in transfected cells; host or cells: U2OS
SSTR2-tGFP, sequence (P30874 whole entry): as the sequence (P30874 whole entry) above
Text: as §2

[11] = molecular target: SSTR5-tGFP (Homo sapiens, UniProt P35346); assay: Internalization of SSTR5 in U2OS transfected cells; format: cell-based; set-up: expressed in transfected cells; host or cells: U2OS
SSTR5-tGFP, sequence (P35346 whole entry): as the sequence (P35346 whole entry) above
Text: as §2

[12] = molecular target: T1, SSTR3; assay: GIRK-based fluorescence membrane potential assay, HEK293-GIRK2-GFP-HA-hSST3
Text: The concentrations used are indicated. […] Data points represent mean±S.E.M.
(§3) Therefore, G protein-signaling mediated by SSTR agonists was studied using a GIRK-based fluorescence membrane potential assay both in HEK293 cells transfected with hSSTR3, and in AtT20 wild-type as well as hSSTR3-transfected cells.

[13] = molecular target: T3, SSTR5
Text: as §3

[14] = molecular target: T2, SSTR2; assay: SSTR binding affinity (Table 1); set-up: expressed in transfected cells; host or cells: HEK293 co-expressing GIRK2-GFP
Text: as §1

[15] = molecular target: T3, SSTR5; assay: SSTR5 internalization in transfected HEK293 cells; format: cell-based; set-up: expressed in transfected cells; host or cells: HEK293 co-expressing GIRK2-GFP
Text: HEK293 cells transfected with human SSTRs, and U20S cells transfected with human GFP-tagged receptors (SSTR2-tGFP, SSTR3-tGFP, SSTR5-tGFP). SST14 and SST28 were included as reference compounds in the first and second experiments, respectively.

[16] = molecular target: T2, SSTR2; assay: cell-based; set-up: expressed in transfected cells; host or cells: HEK293 co-expressing GIRK2-GFP
Text: as §3

T1 sequence (P32745 whole entry): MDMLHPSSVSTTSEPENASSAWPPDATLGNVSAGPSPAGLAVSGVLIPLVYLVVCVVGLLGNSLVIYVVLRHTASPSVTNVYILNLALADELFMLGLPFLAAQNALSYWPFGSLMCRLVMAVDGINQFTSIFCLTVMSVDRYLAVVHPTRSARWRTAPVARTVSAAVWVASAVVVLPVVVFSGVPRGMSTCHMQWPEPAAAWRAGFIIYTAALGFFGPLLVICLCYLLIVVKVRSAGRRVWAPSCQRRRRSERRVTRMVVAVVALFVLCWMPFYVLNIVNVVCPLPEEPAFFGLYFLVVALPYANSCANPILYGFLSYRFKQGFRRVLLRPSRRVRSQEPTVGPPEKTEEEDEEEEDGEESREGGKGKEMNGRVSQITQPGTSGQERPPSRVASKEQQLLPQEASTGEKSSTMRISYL

## COc1cc2cccc(OC)c2cc1C[C@H]1NC(=O)[C@H](Cc2ccc(O)cc2)NC(=O)[C@@H]2C[C@@H](OC(=O)NCCN)CN2C(=O)[C@H](Cc2ccccc2)NC(=O)[C@H](Cc2ccc(OCc3ccccc3)cc2)NC(=O)[C@H](CCCCN)NC1=O [ITF2984, (3S,6R,9S,12S,15S,19R,20aS)-9-(4-aminobutyl)-15-benzyl-12-(4-(benzyloxy)benzyl)-6-((3,8-dimethoxynaphthalen-2-yl)methyl)-3-(4-hydroxybenzyl)-1,4,7,10,13,16-hexaoxoicosahydropyrrolo[1,2-a][1,4,7,10,13,16]hexaazacyclooctadecin-19-yl (2-aminoethyl)carbamate]
[1]
  IC50: nanomolar range
[1]; compared to octreotide
  affinity compared to octreotide: higher affinity
[2]
  replacement of agonists: fully replace agonists
[3]
  IGF1 levels: decreased IGF1 levels
[4]
  IGF1 levels: decreased IGF1 levels
[5]; end of the treatment
  signs of discomfort: no signs of discomfort
[5]; female rats, 56 days, 12.5 mg/kg every 14 days
  tumor volume (MRI): only a slight increase in tumor volume
[5]; female rats
  number of Ki67-positive cells per 100.000 μm^2: 134
[5]; male rats
  change in Ki67-positive cells versus placebo: −33.5%
  number of Ki67-positive cells per 100.000 μm^2: 250
[6]; 2.56 μM, 18 days
  spheroid morphology at the highest concentration: completed destroyed
[6]; starting from day 7
  concentration reducing the spheroid volume: ≥ 640 nM
[7]
  internalization of SSTR2: only a partial internalization
[8]
  phosphorylation of SSTR2 (pS341/pS343, pT353/T354, pT356/T359): selective phosphorylation of S341/S343
[9]
  phosphorylation of SSTR5 (pT333): partial phosphorylation
[10]; 1 μM
  Mean of internalized fluorescence, SSTR2: 37.3 AU
[10]; 10 μM
  Mean of internalized fluorescence, SSTR2: 35.9 AU
[11]; 1 μM
  Mean of internalized fluorescence, SSTR5: 34.6 AU
[11]; 10 μM
  Mean of internalized fluorescence, SSTR5: 42.0 AU
[12]
  EC50: 10.7 ± 1.7 nM
[12]; more potent than Octreotide or Pasireotide
  G-protein signaling potency at SSTR3 versus Octreotide or Pasireotide: about 5 times
[13]
  EC50: 95.1 ± 15.2 nM
[14]
  IC50: nanomolar range
[14]; compared to octreotide
  affinity compared to octreotide: lower affinity
[15]
  internalization of SSTR5: only a partial internalization
[16]
  EC50: 312 ± 29.3 nM
